Test results published in patent publication US20100029542A1, “PROTEIN STERILISATION BY RADIATION AND ADDITION OF A STABILISING COMPOSITION” (priority 2006, published 2010).

Target: T1, glucose oxidase (Aspergillus niger, UniProt P13006)
T1 construct: purchased Biocatalysts G575P
Experiment: Activity recovery of glucose oxidase in dry formulations following gamma irradiation
Format: physicochemical
Conditions: glucose oxidase 350 μg mL^−1 prior to drying, dry, 25-40 kGy
Procedure: In each example, an aqueous solution of a protein was prepared with selected additives in an Eppendorf tube or in a glass vial. Water was removed from the formulation by drying under a stream of nitrogen at 30° C. and subsequent incubation at atmospheric pressure in the presence of a dessicant. The Eppendorf tubes or the glass vials were sealed and delivered to an industrial sterilisation service for gamma irradiation, with a dose range typical for sterile medical products. The gamma-irradiated samples were reconstituted on their return and analysed for protein activity or structural integrity. The results were compared with those achieved using control (i.e. non-irradiated) samples.
The dry samples (approx. 20 μg in an Eppendorf tube) were gamma-irradiated by an industry-standard commercial sterilising service provided by Isotron PLC (Swindon, Wilts, UK), using a Cobalt 60 gamma source at ambient temperature. The radiation dose was in the range of 25-40 kGy.
The original solutions (i.e. solutions prior to drying) contained 350 μg mL^−1 of glucose oxidase and typically the total of 100 mM of protective compounds (i.e. 100 mM in case of a single compound, 50 mM+50 mM in case of two compounds, 33.3 mM+33.3 mM+33.3 mM in the case of three compounds etc.). The solutions were dried and gamma irradiated. Following the gamma irradiation, the samples, both pre- and post-gamma irradiated, were assayed for glucose oxidase activity. This was performed according to the following procedure:
Water was added to the sample to achieve 350 μg mL^−1 of glucose oxidase. 50 μL of the solution was added to 50 mL of deionised water. The following solutions were then added: • 10 mL of reagent mix (5 parts of 0.1 M sodium phosphate, pH 6+4 parts 2% w/w starch+1 part of 1 mg/mL lactoperoxidase enzyme); • 5 mL of 100 mM potassium iodide; and • 5 mL of 20% w/w glucose solution.
These were mixed together quickly. Time=0 was counted from the addition of the glucose. After 5 min, 1 ml of 5 M aq. hydrochloric acid was added to stop the reaction. The absorbance was then read at 630 nm using a Unicam UV-visible spectrophotometer (Type: Helios gamma). If the colour intensity was too great to allow an accurate reading, the sample was diluted with a defined volume of deionised water to bring the colour back on scale. The results were expressed as percentage recovery, by reference to the absorbance measured in the pre-gamma irradiation samples.

Measured: Enzyme activity remaining after gamma-irradiation

T1 sequence (P13006 17-605): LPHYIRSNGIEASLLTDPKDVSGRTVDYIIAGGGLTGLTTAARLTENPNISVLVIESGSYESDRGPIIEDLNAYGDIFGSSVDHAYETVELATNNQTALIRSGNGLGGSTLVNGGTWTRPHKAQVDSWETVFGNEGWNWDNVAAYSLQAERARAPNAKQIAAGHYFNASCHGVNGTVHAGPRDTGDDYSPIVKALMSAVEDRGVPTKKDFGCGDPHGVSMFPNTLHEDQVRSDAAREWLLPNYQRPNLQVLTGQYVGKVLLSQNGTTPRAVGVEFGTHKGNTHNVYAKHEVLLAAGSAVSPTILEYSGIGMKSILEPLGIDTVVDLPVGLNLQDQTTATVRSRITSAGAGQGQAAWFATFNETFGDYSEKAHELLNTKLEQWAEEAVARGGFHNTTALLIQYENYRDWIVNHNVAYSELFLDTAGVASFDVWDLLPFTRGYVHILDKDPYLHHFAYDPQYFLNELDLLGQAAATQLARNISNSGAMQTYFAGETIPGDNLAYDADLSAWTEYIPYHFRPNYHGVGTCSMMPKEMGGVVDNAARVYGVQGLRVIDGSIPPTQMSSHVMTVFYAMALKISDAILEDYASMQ

CSCC[C@H](N)C(=O)O [Methionine]
61.3%: Table 3, prior-art antioxidants, ambient temperature, vs non-irradiated | Table 5, singlet oxygen scavengers, ambient temperature | Table 9, superoxide scavengers
